Laboratory results reported in ChEMBL document CHEMBL3217646, “Inhibitors of bacterial tubulin target bacterial membranes in vivo” (Medchemcomm, 2013).
In brackets after ≈: the same amount, converted by molar mass. Activity calls are given as the source filed them. No cut-off for these calls is given here.

Legend:
[1] = test system: Bacillus subtilis; experiment: Induction of transmembrane potential loss in Bacillus subtilis subsp. subtilis str. 168 at 1 times MIC pre-treated for 5 mins and measured 15 mins post dye addition by DiOC2 dye based flow cytometry; format: functional, organism-based
[2] = test system: Bacillus subtilis; experiment: Protonophore activity in Bacillus subtilis subsp. subtilis str. 168 assessed as induction of rapid equlibration of delta-pH at 1 times MIC; format: functional, organism-based
[3] = test system: Bacillus subtilis; experiment: Increase in bacterial membrane permeability in Bacillus subtilis subsp. subtilis str. 168 at 1 times MIC pre-treated for 5 mins and measured 30 mins post dye addition by propidium iodide dye based flow cytometry; format: functional, organism-based
[4] = test system: Bacillus subtilis; experiment: Induction of membrane associated proteins mislocalization in Bacillus subtilis subsp. subtilis str. 168 assessed as reduction in GFP-MinD protein localization by fluorescence assay; format: functional, organism-based
[5] = test system: Bacillus subtilis; experiment: Antimicrobial activity against Bacillus subtilis subsp. subtilis str. 168 after 18 hrs by macro-dilution method; format: functional; details: subsp. subtilis str. 168, 18 h
[6] = test system: C2C12; experiment: Induction of membrane disruption in mouse C2C12 cells assessed as maximum increase in oxygen consumption rate at 30 uM; format: functional, cell-based
[7] = test system: Bacillus subtilis; experiment: Protonophore activity in Bacillus subtilis subsp. subtilis str. 168 assessed as induction of rapid equlibration of delta-pH at 30 uM; format: functional, organism-based
[8] = test system: Bacillus subtilis; experiment: Induction of transmembrane potential loss in Bacillus subtilis subsp. subtilis str. 168 assessed as lambda575/lambda530 fluorescence emission intensity ratio at 1 times MIC pre-treated for 20 mins and measured 15 mins post dye addition by DiOC2 dye based flow cytometry (reference value: 0.257 +/- 0.003 no unit); format: functional
[9] = test system: C2C12; experiment: Induction of membrane disruption in mouse C2C12 cells assessed as change in oxygen consumption rate; format: functional, cell-based
[10] = test system: C2C12; experiment: Induction of membrane disruption in mouse C2C12 cells assessed as increase in oxygen consumption rate at 0.1 to 1.2 uM; format: functional, cell-based
[11] = test system: C2C12; experiment: Induction of membrane disruption in mouse C2C12 cells assessed as maximum increase in oxygen consumption rate at 0.6 uM; format: functional, cell-based
[12] = test system: Bacillus subtilis; experiment: Induction of transmembrane potential loss in Bacillus subtilis subsp. subtilis str. 168 assessed as lambda575/lambda530 fluorescence emission intensity ratio at 1 times MIC pre-treated for 5 mins and measured 15 mins post dye addition by DiOC2 dye based flow cytometry; format: functional

Structure (SMILES) | Activity [1] | Activity [2] | Activity [3] | Activity [4] | MIC [5] [µM] | Activity [6] | Activity [7] | Ratio [8] | Activity [9] | Activity [10] | Activity [11] | Ratio [12]
O=C/C=C/c1ccccc1 [CINNAMALDEHYDE] | Active | inactive | Active | Active | 2500 (≈ 330 µg/mL) |  |  |  |  |  |  | 
Oc1ccc(Cl)cc1Cc1cc(Cl)cc(Cc2cc(Cl)ccc2O)c1O | Active | inactive | inactive | Active | 0.16 (≈ 0.0656 µg/mL) | Active | Active |  |  |  |  | 
NC(=O)c1c(F)ccc(OCc2nc3cc(Cl)cnc3s2)c1F | inactive |  | inactive | inactive | 2.5 (≈ 0.889 µg/mL) |  |  |  |  |  |  | 
C[n+]1cc2c3c(ccc2c2ccc4cc5c(cc4c21)OCO5)OCO3 [SANGUINARIUM] | Active | inactive | Active |  | 10 |  |  |  |  |  |  | 
CO/N=C(\C(=O)N[C@@H]1C(=O)N2C(C(=O)O)=C(COC(N)=O)CS[C@H]12)c1ccco1 [CEFUROXIME] |  |  | inactive | inactive | 20 (≈ 8.49 µg/mL) |  |  | 0.306 |  |  |  | 
CC(C)c1c(O)ccc2c1CC[C@H]1C(C)(C)CCC[C@]21C [TOTAROL] | Active | inactive | Active | Active | 2.5 (≈ 0.716 µg/mL) |  |  |  | inactive |  |  | 
N#CC(C#N)=NNc1cccc(Cl)c1 [CARBONYL CYANIDE M-CHLOROPHENYLHYDRAZONE] |  | Active | inactive | Active | 10 (≈ 2.05 µg/mL) |  |  |  |  | Active | Active | 0.045
COC(=O)CC1Cc2cc3cc(OC)c(-c4c(OC)cc5cc6c(c(O)c5c4O)C(=O)OC(CC(=O)OC)C6)c(O)c3c(O)c2C(=O)O1 (stereo unspecified) [VIRIDITOXIN] | inactive | inactive |  | Active | 0.63 (≈ 0.417 µg/mL) |  |  |  |  |  |  | 
